Results: patent US10897901B2, “Herbicidal composition” (FMC Corporation, priority 2007, dated 2021)

What was measured:
Type in all cases: in vivo
[1] = tested on: Blackseed Plantain (Plantago rugelii); test: Example 1 post-emergent turf plot test, plantain
Description: (§1) The experimental design used randomized plots with post-emergent treatment and three replications per test trial. The size of each experimental plot was 4 feet by 6 feet. The application of each test composition was performed with pressurized back-pack sprayers, calibrated to spray 200 gallons per acre. Test compositions containing sulfentrazone (DISMISS™ Turf Herbicide), quniclorac, (FACET® 75 DF herbicide) or a mixture of sulfentrazone and quinclorac in a 1:3 ratio, prepared as described above, were diluted with water to provide the appropriate test rate concentrations.
(§2) The control of weeds was evaluated in each experimental plot from 7 to 41 days after treatment (DAT) of each test rate. The results, shown as an average of the replications, were compared with results observed in untreated control plots in the same trials.

[2] = tested on: Smooth Crabgrass (Digitaria ischaemum); test: Example 2 post-emergent turf plot test, tillered crabgrass
Description: The experimental design used randomized plots with post-emergent treatment and three replications per test trial. The size of each experimental plot was 4 feet by 6 feet. The application of each test composition was performed with pressurized back-pack sprayers, calibrated to spray 200 gallons per acre. Test compositions containing sulfentrazone (DISMISS™ Turf Herbicide), quinclorac, (FACET® 75 DF herbicide) or a mixture of sulfentrazone and quinclorac in a one to three ratio, prepared as described above, were diluted with water to provide the appropriate test rate concentrations.
The control of weeds was evaluated in each experimental plot from 1 to 27 days after treatment (DAT) of each test rate. The results, shown as an average of the replications, were compared with results observed in untreated control plots in the same trials.

[3] = tested on: Hemp Sesbania (Sesbania exaltata); test: Example 4 post-emergence greenhouse pot test, hemp sesbania
Description: (§3) Test compositions containing sulfentrazone (75 DF formulation), quniclorac, (DRIVE® 75 DF Herbicide) or mixtures of sulfentrazone and quinclorac at ratios of 1:1 to 1:5, were diluted with water to provide the appropriate test rate concentrations. A nonionic surfactant (0.25%) was added to each test solution. The test weeds include crabgrass (Digitaria sp), Chickweed (Stellaria media), Hemp Sesbania (Sesbania exaltata), Kochia (Kochia scoparia), Ivyleaf Morningglory (Ipomoea hederacea), Redroot Pigweed (Amaranthus retroflexus) and yellow nutsedge (Cyperus esculentusi).
(§4) For post-emergence testing, three disposable 3 inch square pots for each rate of application of each herbicide were filled with a soil, comprised of peat moss, vermiculite, bark ash, pine bark, limestone and a wetting agent, to which 8 to 10 seeds were planted. The pots were placed in a greenhouse and watered daily, thus allowing the seeds to germinate and the foliage to develop for 22 days, 3 months for Kochia.
(§5) Pots designated for treatment were placed on a conveyor belt and the conveyor belt fed under a spray nozzle mounted about ten inches above the foliage. The spray of herbicidal solution was commenced and once stabilized; the pots were passed under the spray at a speed to receive a coverage equivalent of 30 gallons per acre. The application rates are those shown in Table 4 below for the individual herbicidal solutions and the mixture of sulfentrazone and quinclorac. The post-emergence pots were immediately placed in the green-house and not watered until 24 hours after treatment with the test solution. Thereafter they were regularly watered at ground level. The control of weeds was evaluated in each experimental test from 2 to 20 days after treatment (DAT). The results, shown as an average of the replications, were compared with results observed in untreated control pots in the same tests.
(§6) Percent control was determined by a method similar to the 0 to 100 rating system disclosed in “Research Methods in Weed Science,” 2nd ed., B. Truelove, Ed.; Southern Weed Science Society; Auburn University, Auburn, Ala., 1977.

[4] = tested on: White Clover (Trifolium repens); test: Example 1 post-emergent turf plot test, clover
Description: as §1, §2

[5] = tested on: Redroot Pigweed (Amaranthus retroflexus); test: Example 4 post-emergence greenhouse pot test, pigweed
Description: as §3, §4, §5, §6

Cc1nn(-c2cc(NS(C)(=O)=O)c(Cl)cc2Cl)c(=O)n1C(F)F [A, N-[2,4-dichloro-5-[4-(difluoromethyl)-4,5-dihydro-3-methyl-5-oxo-1H-1,2,4-triazol-1-yl]phenyl]methanesulfonamide]
Percent Control ([1]; 0.57 lb ai/acre, 7 DAT): 83%
Percent Control ([1]; 0.57 lb ai/acre, 14 DAT): 88%
Percent Control ([1]; 0.57 lb ai/acre, 21 DAT): 100%
Percent Control ([1]; 0.57 lb ai/acre, 28 DAT): 100%
Percent Control ([2]; 0.57 lb ai/acre, 7 DAT): 34%
Percent Control ([2]; 0.57 lb ai/acre, 14 DAT): 36%
Percent Control ([2]; 0.57 lb ai/acre, 21 DAT): 52%
Percent Control ([3]; 0.25 lb ai/acre, 2 DAT): 70%
Percent Control ([3]; 0.25 lb ai/acre, 7 DAT): 85%
Percent Control ([3]; 0.25 lb ai/acre, 14 DAT): 90%
Percent Control ([3]; 0.25 lb ai/acre, 20 DAT): 90%
Percent Control ([4]; 0.57 lb ai/acre, 7 DAT): 59%
Percent Control ([4]; 0.57 lb ai/acre, 14 DAT): 63%
Percent Control ([4]; 0.57 lb ai/acre, 21 DAT): 59%
Percent Control ([4]; 0.57 lb ai/acre, 28 DAT): 52%
Percent Control ([5]; 0.25 lb ai/acre, 2 DAT): 80%
Percent Control ([5]; 0.25 lb ai/acre, 7 DAT): 95%
Percent Control ([5]; 0.25 lb ai/acre, 14 DAT): 99%
Percent Control ([5]; 0.25 lb ai/acre, 20 DAT): 90%

O=C(O)c1c(Cl)ccc2cc(Cl)cnc12 [B, 3,7-dichloro-8-quinolinecarboxylic acid]
Percent Control ([1]; 0.75 lb ai/acre, 7 DAT): 100%
Percent Control ([1]; 0.75 lb ai/acre, 14 DAT): 100%
Percent Control ([1]; 0.75 lb ai/acre, 21 DAT): 100%
Percent Control ([1]; 0.75 lb ai/acre, 28 DAT): 100%
Percent Control ([2]; 0.75 lb ai/acre, 7 DAT): 54%
Percent Control ([2]; 0.75 lb ai/acre, 14 DAT): 66%
Percent Control ([2]; 0.75 lb ai/acre, 21 DAT): 67%
Percent Control ([3]; 0.25 lb ai/acre, 2 DAT): 0%
Percent Control ([3]; 0.25 lb ai/acre, 7 DAT): 0%
Percent Control ([3]; 0.25 lb ai/acre, 14 DAT): 5%
Percent Control ([3]; 0.25 lb ai/acre, 20 DAT): 20%
Percent Control ([3]; 0.5 lb ai/acre, 2 DAT): 0%
Percent Control ([3]; 0.5 lb ai/acre, 7 DAT): 10%
Percent Control ([3]; 0.5 lb ai/acre, 14 DAT): 20%
Percent Control ([3]; 0.5 lb ai/acre, 20 DAT): 60%
Percent Control ([3]; 0.75 lb ai/acre, 2 DAT): 0%
Percent Control ([3]; 0.75 lb ai/acre, 7 DAT): 0%
Percent Control ([3]; 0.75 lb ai/acre, 14 DAT): 10%
Percent Control ([3]; 0.75 lb ai/acre, 20 DAT): 60%
Percent Control ([3]; 1.0 lb ai/acre, 2 DAT): 10%
Percent Control ([3]; 1.0 lb ai/acre, 7 DAT): 10%
Percent Control ([3]; 1.0 lb ai/acre, 14 DAT): 20%
Percent Control ([3]; 1.0 lb ai/acre, 20 DAT): 60%
Percent Control ([3]; 1.25 lb ai/acre, 2 DAT): 0%
Percent Control ([3]; 1.25 lb ai/acre, 7 DAT): 0%
Percent Control ([3]; 1.25 lb ai/acre, 14 DAT): 10%
Percent Control ([3]; 1.25 lb ai/acre, 20 DAT): 50%
Percent Control ([4]; 0.75 lb ai/acre, 7 DAT): 50%
Percent Control ([4]; 0.75 lb ai/acre, 14 DAT): 50%
Percent Control ([4]; 0.75 lb ai/acre, 21 DAT): 50%
Percent Control ([4]; 0.75 lb ai/acre, 28 DAT): 63%
Percent Control ([5]; 0.25 lb ai/acre, 2 DAT): 10%
Percent Control ([5]; 0.25 lb ai/acre, 7 DAT): 10%
Percent Control ([5]; 0.25 lb ai/acre, 14 DAT): 10%
Percent Control ([5]; 0.25 lb ai/acre, 20 DAT): 10%
Percent Control ([5]; 0.5 lb ai/acre, 2 DAT): 0%
Percent Control ([5]; 0.5 lb ai/acre, 7 DAT): 0%
Percent Control ([5]; 0.5 lb ai/acre, 14 DAT): 0%
Percent Control ([5]; 0.5 lb ai/acre, 20 DAT): 0%
Percent Control ([5]; 0.75 lb ai/acre, 2 DAT): 0%
Percent Control ([5]; 0.75 lb ai/acre, 7 DAT): 0%
Percent Control ([5]; 0.75 lb ai/acre, 14 DAT): 0%
Percent Control ([5]; 0.75 lb ai/acre, 20 DAT): 0%
Percent Control ([5]; 1.0 lb ai/acre, 2 DAT): 0%
Percent Control ([5]; 1.0 lb ai/acre, 7 DAT): 0%
Percent Control ([5]; 1.0 lb ai/acre, 14 DAT): 0%
Percent Control ([5]; 1.0 lb ai/acre, 20 DAT): 0%
Percent Control ([5]; 1.25 lb ai/acre, 2 DAT): 10%
Percent Control ([5]; 1.25 lb ai/acre, 7 DAT): 10%
Percent Control ([5]; 1.25 lb ai/acre, 14 DAT): 10%
Percent Control ([5]; 1.25 lb ai/acre, 20 DAT): 10%
